Test results reported in patent US20220380383A1, “NEUROPROTECTIVE PDI MODULATING SMALL MOLECULES AND METHODS OF USE THEREOF” (THE TRUSTEES OF COLUMBIA UNIVERSITY IN THE CITY OF NEW YORK, priority 2018, published 2022).
Values after ≈ are worked out from the molar mass of the structure shown. Like-named read-outs stand apart in the source and are kept apart here.

How the values were obtained:
[1] = molecular target: T1, human catalytic PDI A1 a domain (PDIa) (Homo sapiens, UniProt P07237); assay: Isothermal titration calorimetry (ITC) binding to PDIa
T1 construct: made in house; host or cells: Escherichia coli BL21-Gold (DE3)
T1 sequence (P07237 18-134): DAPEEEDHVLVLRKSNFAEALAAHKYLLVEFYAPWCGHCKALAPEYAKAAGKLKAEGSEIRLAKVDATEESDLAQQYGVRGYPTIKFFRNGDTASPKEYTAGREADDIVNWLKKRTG
Procedure: All ITC experiments were carried out at 25° C. on MicoCal Auto-ITC200 system (GE Healthcare). […] ITC titration experiments were carried out at 25° C. with 19 injections, 2 μl per injection, and 180 seconds between each injection. The reference cell power was set to 5 μcal/sec. A control experiment was performed for each compound, where each compound was titrated into buffer to account for heat released due to dilution. This background was subtracted from test data before a final dissociation constant was obtained. […] Gibbs free energy, ΔG, was calculated from equation ΔG=ΔH-TΔS. All other parameters, Ka, n, ΔH, ΔS, were determined directly from the titration data.
LOC14 analogs were designed and synthesized as described in the synthetic schemes. The analogs were evaluated for their binding to PDIa using isothermal titration calorimetry (ITC) (results of certain compounds are shown in FIGS. 1A-1E). Next, the analogs were tested for their ability to rescue PC12 cells from mHTT^Q103 induced cell death in a dose-dependent manner (results of certain compounds are shown in FIG. 2).

PC12 mHTTQ103 cells = assay: Rescue of PC12 cells from mHTTQ103-induced cell death; assay type: cell-based, rat; settings: for EC50: Rattus norvegicus, PC-12
physchem = settings: organic solvent or mixture
[2] = Solubility (stock solvent)
[3] = N/A = not active, read-out: ITC KD
[4] = Tables 5-13, NA = not active, read-out: Kd
[5] = Tables 5-13, PC12 cells, read-out: EC50
[6] = rescue from mHTTQ103 induced cell death, read-out: PC12 cells EC50
[7] = rescue from mHTTQ103 induced cell death
[8] = Tables 5-13, solvent not given (DMSO in Table 1)

SMILES	Kd [1, 4] [µM]	ITC KD ([1]; N/A = not active)	Solubility [2, 8] [mM]	Solubility [2] [mM in DMSO]	EC50 (PC12 mHTTQ103 cells; [5]) [µM]	EC50 (PC12 mHTTQ103 cells; [6]) [µM]	Max Viability (%) (PC12 mHTTQ103 cells; Tables 5-13, PC12 cells)	PC12 cells Max % Viability (PC12 mHTTQ103 cells; [7]) [%]	also measured
Cc1ccc2sn(CN3CCN(C(=O)C4CC4)CC3)c(=O)c2c1 [LC-63, 2-((4-(cyclopropanecarbonyl)piperazin-1-yl)methyl)-5-methylbenzo[d]isothiazol-3(2H)-one]	0.24				0.659	0.659	66		Kd [1, 3]: 0.24 µM; Solubility (physchem; DMSO): 50 mM (≈ 16.6 mg/mL); Solubility (physchem): 50 mM (≈ 16.6 mg/mL)
Cc1ccc2c(=O)n(CN3CCN(C(=O)C4CC4)CC3)sc2c1 [LC-62, 2-((4-(cyclopropanecarbonyl)piperazin-1-yl)methyl)-6-methylbenzo[d]isothiazol-3(2H)-one]	0.662				1.58	1.58	54	54.31	Kd [1, 3]: 0.662 µM; Solubility (physchem; DMSO): 50 mM (≈ 16.6 mg/mL); Solubility (physchem): 50 mM (≈ 16.6 mg/mL)
Cc1nnc2sn(CN3CCN(Cn4sc5nnc(C)c(C)c5c4=O)CC3)c(=O)c2c1C [LC-72, 2,2′-(piperazine-1,4-diylbis(methylene))bis(4,5-dimethylisothiazolo[5,4-c]pyridazin-3(2H)-one)]							10	10.26	PC12 cells EC50 (PC12 mHTTQ103 cells; [7]): Not Active; Solubility (physchem; NMP (N-Methyl-2-Pyrrolidine)): 1 mM (≈ 0.473 mg/mL); Solubility (physchem; NMP): 1 mM (≈ 0.473 mg/mL)
Cc1nc2sn(CN3CCN(Cn4sc5nc(C)c(C)c(C)c5c4=O)CC3)c(=O)c2c(C)c1C [LC-71, 2,2′-(piperazine-1,4-diylbis(methylene))bis(4,5,6-trimethylisothiazolo[5,4-b]pyridin-3(2H)-one)]					1.02	1.02	41	40.98	Solubility (physchem; NMP (N-Methyl-2-Pyrrolidine)): 2.5 mM (≈ 1.25 mg/mL); Solubility (physchem; NMP): 2.5 mM (≈ 1.25 mg/mL)
Cn1sccc1=O [LC-35]		KD = N/A irreversible or not acitve	100 (≈ 11.5 mg/mL)				15	14.63	PC12 cells EC50 (PC12 mHTTQ103 cells; [7]): Not Active; Solubility ([2]; in water): 100 mM in water
Cc1nnc2s[nH]c(=O)c2c1C [LC-57, 4,5-dimethylisothiazolo[5,4-c]pyridazin-3(2H)-one]	0.018		100 (≈ 18.1 mg/mL)	100	12.2		54	54.15	Kd [1, 3]: 0.0175 µM
O=c1c2ccccc2sn1CN1CCC(CO)CC1 [LC-4]	0.265		100 (≈ 27.8 mg/mL)	100	0.343	0.343	60	60.18	
Cc1ccc2s[nH]c(=O)c2c1 [LC-61, 5-Methylbenzo[d]isothiazol-3(2H)-one]	0.267		100 (≈ 16.5 mg/mL)	100	0.591	0.591	65	64.68	Kd [1, 3]: 0.267 µM
O=C(NCc1ccc(Br)cc1)c1ccccc1S [LC-20]		KD = N/A irreversible or not active	100 (≈ 32.2 mg/mL)	100	> 50		42	42.11	
O=c1c2cccnc2sn1CCN1CCOCC1 [LC-55]	0.02		100 (≈ 26.5 mg/mL)	100			13	13.20	Kd [1, 3]: 0.0201 µM; PC12 cells EC50 (PC12 mHTTQ103 cells; [7]): Not Active
O=C(C1CC1)N1CCN(Cn2sc3ccc(Cl)cc3c2=O)CC1 [LC-15]	0.114		15 (≈ 5.28 mg/mL)	15	0.487	0.487	57	56.92	
O=c1c2ccccc2sn1CN1CCCCC1 [LC-1]	0.107		100 (≈ 24.8 mg/mL)	100	0.459		67	66.57	
O=c1c2ccccc2sn1CN1CCOCC1 [LC-18]	0.253		100 (≈ 25 mg/mL)	100	0.547		69	69.00	

Further lines, with some results ahead:

Kd [1, 4] [µM]	ITC KD ([1]; N/A = not active)	Solubility [2, 8] [mM]	Solubility [2] [mM in DMSO]	SMILES	EC50 (PC12 mHTTQ103 cells; [5]) [µM]	EC50 (PC12 mHTTQ103 cells; [6]) [µM]	Max Viability (%) (PC12 mHTTQ103 cells; Tables 5-13, PC12 cells)	PC12 cells Max % Viability (PC12 mHTTQ103 cells; [7]) [%]	also measured
	KD = N/A irreversible or not active	100 (≈ 25.5 mg/mL)	100	O=C(c1ccccc1)n1sc2ccccc2c1=O [LC-11]	> 50		28	27.72	
	KD = N/A irreversible or not active	100 (≈ 32.2 mg/mL)	100	Cc1ccc(NC(=O)c2ccccc2S)c(Br)c1 [LC-34]	3.77		42	41.95	
1.21				O=c1c2ccccc2sn1CN1CCC(N2CCCCC2)CC1 [LC-64, 2-([1,4′-bipiperidin]-1′-ylmethyl)benzo[d]isothiazol-3(2H)-one]	0.393	0.393	81	81.43	Kd ([1]; read-out: ITC KD): 1.21 µM; Solubility (physchem; DMSO): 50 mM (≈ 16.6 mg/mL); Solubility (physchem): 50 mM (≈ 16.6 mg/mL)
			100	C#CCn1sc2ccccc2c1=O [LC-66, 2-(prop-2-yn-1-yl)benzo[d]isothiazol-3(2H)-one]		0.763		40.34	Kd ([1]; two-site binding, first site, read-out: ITC KD1): 0.0307 µM; Kd ([1]; two-site binding, second site, read-out: ITC KD2): 14.4 µM
	KD = N/A irreversible or not active	100 (≈ 16.8 mg/mL)	100	O=c1ssc2ccccc12 [LC-48]			8	8.14	PC12 cells EC50 (PC12 mHTTQ103 cells; [7]): Not Active
	KD = N/A irreversible or not active		100	NC(=O)c1cccc(C(F)(F)F)c1SSc1c(C(N)=O)cccc1C(F)(F)F [LC-45]				16.98	PC12 cells EC50 (PC12 mHTTQ103 cells; [7]): Not Active
	KD = N/A irreversible or not active	100 (≈ 38.5 mg/mL)	100	O=C(C1CC1)N1CCN(Cn2sc3c(C(F)(F)F)cccc3c2=O)CC1 [LC-42]			8	8.17	PC12 cells EC50 (PC12 mHTTQ103 cells; [7]): Not Active
	KD = N/A irreversible or not active	100 (≈ 31.9 mg/mL)	100	O=C(Nc1ccc(Cc2ccccc2)cc1)c1ccccc1S [LC-23]	3.88		57	56.53	
	KD = N/A irreversible or not active	100 (≈ 31.9 mg/mL)	100	O=c1c2ccccc2sn1-c1ccc(Oc2ccccc2)cc1 [LC-37]	1.68		22	21.77	
0.173 ± 0.032		100 (≈ 33.9 mg/mL)	100	O=c1c2ccccc2sn1CN1CCN(Cc2ccccc2)CC1 [LC-22]	0.31		62	61.51	
	KD = N/A irreversible or not active	100 (≈ 35.2 mg/mL)	100	O=C(C1CC1)N1CCN(Cn2sc3c(Cl)cccc3c2=O)CC1 [LC-39]			7	7.02	PC12 cells EC50 (PC12 mHTTQ103 cells; [7]): Not Active
	KD = N/A irreversible or not active		100	NC(=O)c1cccc(F)c1SSc1c(F)cccc1C(N)=O [LC-44, 2,2′-disulfanediylbis(3-fluorobenzamide)]				87.19	
		5 (≈ 2.06 mg/mL)	5	O=c1c2ccccc2sn1CN1CCN(Cn2sc3ccccc3c2=O)CC1 [LC-9]		0.173	66	66.07	Kd ([1]; ITC assay, read-out: KD): 0.013 µM; Kd [1, 3]: 0.0127 µM
0.19 ± 0.027		100 (≈ 36.7 mg/mL)	100	CC(=O)c1ccc(N2CCN(Cn3sc4ccccc4c3=O)CC2)cc1 [LC-13]	0.514		63	63.14	
	Not active or irreversible		100	O=c1c2ccccc2on1Cc1ccccc1 [LC-67, 2-benzylbenzo[d]isoxazol-3(2H)-one]				8.05	PC12 cells EC50 (PC12 mHTTQ103 cells; [7]): not active
	KD = N/A irreversible or not active	100 (≈ 32.1 mg/mL)	100	O=C(Nc1ccc(Oc2ccccc2)cc1)c1ccccc1S [LC-33]	2.94		54	54.43	
